Assay results: patent US5696083A, “Personal care composition containing pyrithione and polymyxin” (Olin Corporation, priority 1994, dated 1997)

Experiments:
Format in all cases: cell-based
Alcaligens faecalis = assay: MIC in Tryptic Soy Broth, compounds alone and in mixtures; details: Table 1, 28° C., 3 days
Method: (§1) Determinations of minimum inhibitory concentrations (MIC's) of the two compounds (pyrithione salts and/or polymyxin sulfate) in a nutrient broth (alone and in mixtures) were conducted to evaluate interactions. Stock solutions of pyrithione salts and/or polymyxin salts were diluted in Tryptic Soy Broth (Difco), and the dilutions were inoculated with an equal volume of bacterial culture (10^6 /ml) or fungal spore suspension (10^5 /ml) in Tryptic Soy Broth and incubated at 28° C. for 3-7 days.
(§2) The interactions of the antimicrobials were determined according to accepted procedures (M. C. Berenbaum [Tables 1 and 2] and P. F. Dougherty "Microdilution Transfer Plate Technique for Determining In Vitro Synergy of Antimicrobial Agents", ANTIMICROBIAL AGENTS AND CHEMOTHERAPY, Vol. 11, No. 2, p. 225-228 (Feb. 1977, American Society for Microbiology) [Tables 3 and 4]). The concentration of each agent in the combination that inhibits the organisms is expressed as a fraction of the concentration that causes the same effect when the same agent is tested alone (i.e., its fractional inhibitory concentration, FIC). If the sum of the FIC's is 1, the combination is additive in its antimicrobial effect; if the sum is <1, the combination is synergistic; and if the sum is >1, the combination is antagonistic.
(§3) ^a Compounds were serially diluted in Tryptic soy Broth (DIFCO),
(§4) ^b Each dilution contained 10^6 bacteria/ml of 10^5 fungi/ml.
(§5) ^a Stock solutions of ZP in dimethylsulfoxide and PB in sterile water

Aspergillus niger = assay: as above; details: Table 1, 28° C., 6-7 days
Method: as §1, §2, §3, §4, §5

Aureobasidium pullulans = assay: as above; details: Table 1, 28° C., 6-7 days
Method: as §1, §2, §3, §4, §5

Candida albicans [1] = assay: as above; details: Table 1, 28° C., 6-7 days
Method: as §1, §2, §3, §4, §5

Cephalosporium sp. = assay: as above; details: Table 1, 28° C., 6-7 days
Method: as §1, §2, §3, §4, §5

Chaetomium globosium = assay: as above; details: Table 1, 28° C., 6-7 days
Method: as §1, §2, §3, §4, §5

Citrobacter freundii = assay: as above; details: Table 1, 28° C., 3 days
Method: as §1, §2, §3, §4, §5

Fusarium solani = assay: as above; details: Table 1, 28° C., 6-7 days
Method: as §1, §2, §3, §4, §5

Gliocladium virens = assay: as above; details: Table 1, 28° C., 6-7 days
Method: as §1, §2, §3, §4, §5

Penicillin pinophilium = assay: as above; details: Table 1, 28° C., 6-7 days
Method: as §1, §2, §3, §4, §5

Proteus mirabilis [2] = assay: as above; details: Table 1, 28° C., 3 days
Method: as §1, §2, §3, §4, §5

Pseudomonas Stutzeri = assay: as above; details: Table 1, 28° C., 3 days
Method: as §1, §2, §3, §4, §5

Pseudomonas aeruginosa [3] = assay: as above; details: Table 1, 28° C., 3 days
Method: as §1, §2, §3, §4, §5

Pseudomonas fluorescens [4] = assay: as above; details: Table 1, 28° C., 3 days
Method: as §1, §2, §3, §4, §5

Pseudomonas oleovorans = assay: as above; details: Table 1, 28° C., 3 days
Method: as §1, §2, §3, §4, §5

Pseudomonas rubescens = assay: as above; details: Table 1, 28° C., 3 days
Method: as §1, §2, §3, §4, §5

[5] = test system: Trichophyton mentagrophytes; assay: as above; details: Table 1, 28° C., 6-7 days
Method: as §1, §2, §3, §4, §5

Candida albicans [6] = assay: Checkerboard MIC Test in Tryptic Soy Broth; details: 28° C., 5 days; for Minimum Inhibitory Concentration, Compound Used Alone: checkerboard, PE methanesulfonate, Na+, 14,310 units/mg
Method: as §1, §2, §4

Proteus mirabilis [7] = assay: Checkerboard MIC Test in Tryptic Soy Broth; details: 28° C., 3 days; for Minimum Inhibitory Concentration, Compound Used Alone: checkerboard, PE methanesulfonate, Na+, 14,310 units/mg
Method: as §1, §2, §4

Pseudomonas aeruginosa [8] = assay: Checkerboard MIC Test in Tryptic Soy Broth; details: 28° C., 3 days; for Minimum Inhibitory Concentration, Compound Used Alone: checkerboard, PE methanesulfonate, Na+, 14,310 units/mg
Method: as §1, §2, §4

Pseudomonas fluorescens [9] = assay: Checkerboard MIC Test in Tryptic Soy Broth; details: 28° C., 3 days; for Minimum Inhibitory Concentration, Compound Used Alone: checkerboard, PE methanesulfonate, Na+, 14,310 units/mg
Method: as §1, §2, §4

[10] = test system: Trichophyton mentagrophytes; assay: Checkerboard MIC Test in Tryptic Soy Broth; details: 28° C., 5 days; for Minimum Inhibitory Concentration, Compound Used Alone: checkerboard, PE methanesulfonate, Na+, 14,310 units/mg
Method: as §1, §2, §4

[11] = alone, Tryptic Soy Broth, PB sulfate 7610 units/mg
[12] = concentration of the component in SP+PB mixture, SP/PB ratio 1/20-1/10
[13] = concentration of the component in SP+PB mixture, SP/PB ratio 1
[14] = concentration of the component in SP+PB mixture, SP/PB ratio 650
[15] = Table 3, concentration of the component in SP+PE mixtures, SP/PE range 1/2048-1/4
[16] = Table 3, concentration of the component in SP+PE mixtures, SP/PE range 1/16-4
[17] = Table 3, concentration of the component in SP+PE mixtures, SP/PE range 4-16
[18] = Table 3, concentration of the component in SP+PE mixtures, SP/PE range ≤1/128-8
[19] = Table 3, concentration of the component in SP+PE mixtures, SP/PE range 1/2-8

[Na+].[O-][n+]1ccccc1[S-] [SP, sodium pyrithione]
Minimum Inhibitory Concentration, Compound Used Alone (Alcaligens faecalis; [11]): 30.5 ppm
Minimum Inhibitory Concentration, Mixture (Alcaligens faecalis; concentration of the component in SP+PB mixture, SP/PB ratio 5-41): 9.3 ppm
Minimum Inhibitory Concentration, Compound Used Alone (Aspergillus niger; [11]): 121.9 ppm
Minimum Inhibitory Concentration, Mixture (Aspergillus niger; concentration of the component in SP+PB mixture, SP/PB ratio 1/10): 40.6 ppm
Minimum Inhibitory Concentration, Compound Used Alone (Aureobasidium pullulans; [11]): 15.2 ppm
Minimum Inhibitory Concentration, Mixture (Aureobasidium pullulans; [12]): 5.1 ppm
Minimum Inhibitory Concentration, Compound Used Alone (Candida albicans [1]; [11]): 33.9 ppm
Minimum Inhibitory Concentration, Mixture (Candida albicans [1]; [12]): 6.7 ppm
Minimum Inhibitory Concentration, Compound Used Alone (Cephalosporium sp.; [11]): 50.8 ppm
Minimum Inhibitory Concentration, Mixture (Cephalosporium sp.; [13]): 15.2 ppm
Minimum Inhibitory Concentration, Compound Used Alone (Chaetomium globosium; [11]): 12.7 ppm
Minimum Inhibitory Concentration, Mixture (Chaetomium globosium; concentration of the component in SP+PB mixture, SP/PB ratio 1/10-1/5): 3.8 ppm
Minimum Inhibitory Concentration, Compound Used Alone (Citrobacter freundii; [11]): 12.7 ppm
Minimum Inhibitory Concentration, Mixture (Citrobacter freundii; concentration of the component in SP+PB mixture, SP/PB ratio 41-81): 6.7 ppm
Minimum Inhibitory Concentration, Compound Used Alone (Fusarium solani; [11]): 243.8 ppm
Minimum Inhibitory Concentration, Mixture (Fusarium solani; [13]): 40.6 ppm
Minimum Inhibitory Concentration, Compound Used Alone (Gliocladium virens; [11]): 108.3 ppm
Minimum Inhibitory Concentration, Mixture (Gliocladium virens; concentration of the component in SP+PB mixture, SP/PB ratio 1/10-1): 15.2 ppm
Minimum Inhibitory Concentration, Compound Used Alone (Penicillin pinophilium; [11]): 20.3 ppm
Minimum Inhibitory Concentration, Mixture (Penicillin pinophilium; [12]): 5.1 ppm
Minimum Inhibitory Concentration, Compound Used Alone (Proteus mirabilis [2]; [11]): 325.1 ppm
Minimum Inhibitory Concentration, Mixture (Proteus mirabilis [2]; concentration of the component in SP+PB mixture, SP/PB ratio 1/20-1): 61.0 ppm
Minimum Inhibitory Concentration, Compound Used Alone (Pseudomonas Stutzeri; [11]): 81.3 ppm
Minimum Inhibitory Concentration, Mixture (Pseudomonas Stutzeri; concentration of the component in SP+PB mixture, SP/PB ratio 325-650): 40.6 ppm
Minimum Inhibitory Concentration, Compound Used Alone (Pseudomonas aeruginosa [3]; [11]): 162.6 ppm
Minimum Inhibitory Concentration, Mixture (Pseudomonas aeruginosa [3]; concentration of the component in SP+PB mixture, SP/PB ratio 163-325): 81.3 ppm
Minimum Inhibitory Concentration, Compound Used Alone (Pseudomonas fluorescens [4]; [11]): 135.5 ppm
Minimum Inhibitory Concentration, Mixture (Pseudomonas fluorescens [4]; concentration of the component in SP+PB mixture, SP/PB ratio 3-10): 6.7 ppm
Minimum Inhibitory Concentration, Compound Used Alone (Pseudomonas oleovorans; [11]): 12.7 ppm
Minimum Inhibitory Concentration, Mixture (Pseudomonas oleovorans; [14]): 3.2 ppm
Minimum Inhibitory Concentration, Compound Used Alone (Pseudomonas rubescens; [11]): 23.7 ppm
Minimum Inhibitory Concentration, Mixture (Pseudomonas rubescens; [14]): 2.5 ppm
Minimum Inhibitory Concentration, Compound Used Alone [5, 11]: 20.3 ppm
Minimum Inhibitory Concentration, Mixture ([5]; concentration of the component in SP+PB mixture, SP/PB ratio 1/10-1/3): 8.5 ppm
Minimum Inhibitory Concentration, Compound Used Alone (Candida albicans [6]; Table 3): 32 ppm
Minimum Inhibitory Concentration, Mixture Range (Candida albicans [6]; [15]): 1-16 ppm
Minimum Inhibitory Concentration, Compound Used Alone (Proteus mirabilis [7]; Table 3): 512 ppm
Minimum Inhibitory Concentration, Mixture Range (Proteus mirabilis [7]; [16]): 256 ppm
Minimum Inhibitory Concentration, Compound Used Alone (Pseudomonas aeruginosa [8]; Table 3): 128 ppm
Minimum Inhibitory Concentration, Mixture Range (Pseudomonas aeruginosa [8]; [17]): 32-64 ppm
Minimum Inhibitory Concentration, Compound Used Alone (Pseudomonas fluorescens [9]; Table 3): 128 ppm
Minimum Inhibitory Concentration, Mixture Range (Pseudomonas fluorescens [9]; [18]): ≤1-32 ppm
Minimum Inhibitory Concentration, Compound Used Alone ([10]; Table 3): 32 ppm
Minimum Inhibitory Concentration, Mixture Range [10, 19]: 16-32 ppm

Polymyxin E methanesulfonate [PE]
Minimum Inhibitory Concentration, Compound Used Alone (Candida albicans [6]; Table 3): > 8200 ppm
Minimum Inhibitory Concentration, Mixture Range (Candida albicans [6]; [15]): 64-2048 ppm
Minimum Inhibitory Concentration, Compound Used Alone (Candida albicans [6]; Table 4): > 8200 ppm
Minimum Inhibitory Concentration, Mixture Range (Candida albicans [6]; Table 4, concentration of the component in ZP+PE mixtures, ZP/PE range 1/2048-1/4): 32-2048 ppm
Minimum Inhibitory Concentration, Compound Used Alone (Proteus mirabilis [7]; Table 3): > 16,400 ppm
Minimum Inhibitory Concentration, Mixture Range (Proteus mirabilis [7]; [16]): 64-4096 ppm
Minimum Inhibitory Concentration, Compound Used Alone (Proteus mirabilis [7]; Table 4): > 16,400 ppm
Minimum Inhibitory Concentration, Mixture Range (Proteus mirabilis [7]; Table 4, concentration of the component in ZP+PE mixtures, ZP/PE range 1/1024): 4096 ppm
Minimum Inhibitory Concentration, Compound Used Alone (Pseudomonas aeruginosa [8]; Table 3): 16 ppm
Minimum Inhibitory Concentration, Mixture Range (Pseudomonas aeruginosa [8]; [17]): 4-8 ppm
Minimum Inhibitory Concentration, Compound Used Alone (Pseudomonas aeruginosa [8]; Table 4): 16 ppm
Minimum Inhibitory Concentration, Mixture Range (Pseudomonas aeruginosa [8]; Table 4, concentration of the component in ZP+PE mixtures, ZP/PE range 2-8): 4-8 ppm
Minimum Inhibitory Concentration, Compound Used Alone (Pseudomonas fluorescens [9]; Table 3): 256 ppm
Minimum Inhibitory Concentration, Mixture Range (Pseudomonas fluorescens [9]; [18]): 4-128 ppm
Minimum Inhibitory Concentration, Compound Used Alone (Pseudomonas fluorescens [9]; Table 4): 256 ppm
Minimum Inhibitory Concentration, Mixture Range (Pseudomonas fluorescens [9]; Table 4, concentration of the component in ZP+PE mixtures, ZP/PE range ≤1/128-4): 4-128 ppm
Minimum Inhibitory Concentration, Compound Used Alone ([10]; Table 3): 64 ppm
Minimum Inhibitory Concentration, Mixture Range [10, 19]: 4-32 ppm
Minimum Inhibitory Concentration, Compound Used Alone ([10]; Table 4): 64 ppm
Minimum Inhibitory Concentration, Mixture Range ([10]; Table 4, concentration of the component in ZP+PE mixtures, ZP/PE range 1/4-4): 4-32 ppm
